Results taken from ChEMBL document CHEMBL1201862, “PubChem BioAssay data set” (2004).
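Briefly, cells in 96-well plates were exposed to five compound concentrations for 48 h, and endpoints were estimated by linear interpolation. Here, GI50 denotes the concentration required for 50% inhibition of growth.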 Calls of active or inactive are those of the source. Cut-off read from the data, not from the text of the source: active = GI50 up to about 1.1 µM and inactive = higher.

Key:
Assay in all cases: NCI tumour cell line growth inhibition, 48 h
[1] = test system: A498
[2] = test system: A549
[3] = test system: ACHN
[4] = test system: BT-549
[5] = test system: CAKI-1
[6] = test system: CCRF-CEM
[7] = test system: COLO 205
[8] = test system: DU-145
[9] = test system: EKVX
[10] = test system: HCC 2998
[11] = test system: HCT-116
[12] = test system: HCT-15
[13] = test system: HL-60
[14] = test system: HOP-62
[15] = test system: HOP-92
[16] = test system: HT-29
[17] = test system: Hs-578T
[18] = test system: IGROV-1
[19] = test system: K562
[20] = test system: KM12
[21] = test system: LOX IMVI
[22] = test system: M14
[23] = test system: MCF7
[24] = test system: MDA-MB-435
[25] = test system: MDA-N
[26] = test system: MOLT-4
[27] = test system: Malme-3M
[28] = test system: NCI-H226
[29] = test system: NCI-H23
[30] = test system: NCI-H460
[31] = test system: NCI-H522
[32] = test system: OVCAR-3
[33] = test system: OVCAR-4
[34] = test system: OVCAR-5
[35] = test system: OVCAR-8
[36] = test system: PC-3
[37] = test system: RPMI-8226
[38] = test system: SF-268
[39] = test system: SF-295
[40] = test system: SF-539
[41] = test system: SK-MEL-28
[42] = test system: SK-MEL-2
[43] = test system: SK-MEL-5
[44] = test system: SK-OV-3
[45] = test system: SN12C
[46] = test system: SNB-19
[47] = test system: SNB-75
[48] = test system: SR
[49] = test system: SW-620
[50] = test system: T47D
[51] = test system: TK-10
[52] = test system: U-251
[53] = test system: UACC-257
[54] = test system: UACC-62
[55] = test system: UO-31

## O=C(Nc1cccc2ccccc12)Nn1cnnc1
[1]
  GI50: > 100 µM (inactive)
[2]
  GI50: > 100 µM (inactive)
[3]
  GI50: > 100 µM (inactive)
[4]
  GI50: > 100 µM (inactive)
[5]
  GI50: > 100 µM (inactive)
[6]
  GI50: > 100 µM (inactive)
[7]
  GI50: > 100 µM (inactive)
[8]
  GI50: > 100 µM (inactive)
[9]
  GI50: > 100 µM (inactive)
[10]
  GI50: > 100 µM (inactive)
[11]
  GI50: > 100 µM (inactive)
[12]
  GI50: > 100 µM
[13]
  GI50: > 100 µM (inactive)
[14]
  GI50: > 100 µM (inactive)
[15]
  GI50: > 100 µM (inactive)
[16]
  GI50: > 100 µM (inactive)
[17]
  GI50: > 100 µM (inactive)
[18]
  GI50: > 100 µM (inactive)
[19]
  GI50: > 100 µM (inactive)
[20]
  GI50: > 100 µM (inactive)
[21]
  GI50: > 100 µM (inactive)
[22]
  GI50: > 100 µM (inactive)
[23]
  GI50: > 100 µM (inactive)
[24]
  GI50: > 100 µM (inactive)
[25]
  GI50: > 100 µM (inactive)
[26]
  GI50: > 100 µM (inactive)
[27]
  GI50: > 100 µM (inactive)
[28]
  GI50: > 100 µM (inactive)
[29]
  GI50: > 100 µM (inactive)
[30]
  GI50: > 100 µM (inactive)
[31]
  GI50: > 100 µM (inactive)
[32]
  GI50: > 100 µM (inactive)
[33]
  GI50: > 100 µM (inactive)
[34]
  GI50: > 100 µM (inactive)
[35]
  GI50: 19.1 µM (inactive)
[36]
  GI50: > 100 µM (inactive)
[37]
  GI50: > 100 µM (inactive)
[38]
  GI50: > 100 µM (inactive)
[39]
  GI50: > 100 µM (inactive)
[40]
  GI50: > 100 µM (inactive)
[41]
  GI50: > 100 µM (inactive)
[42]
  GI50: > 100 µM (inactive)
[43]
  GI50: > 100 µM (inactive)
[44]
  GI50: > 100 µM (inactive)
[45]
  GI50: > 100 µM (inactive)
[46]
  GI50: > 100 µM (inactive)
[47]
  GI50: 27.6 µM (inactive)
[48]
  GI50: > 100 µM (inactive)
[49]
  GI50: > 100 µM (inactive)
[50]
  GI50: > 100 µM (inactive)
[51]
  GI50: > 100 µM (inactive)
[52]
  GI50: > 100 µM (inactive)
[53]
  GI50: > 100 µM (inactive)
[54]
  GI50: > 100 µM (inactive)
[55]
  GI50: > 100 µM (inactive)
